Like-named read-outs stand apart in the source and are kept apart here.
Tests used:
[1] = Pharmacokinetics of scoparone, geniposide and rhein in rat plasma after oral administration of the herbal formula Yin-Chen-Hao-Tang (UPLC-MS/MS); format: in vivo, Male Sprague Dawley rats
Experimental: All samples were subjected to chromatographic separation using the Shimadzu UPLC system with an Acquity UPLC BEH C18 column (1.7 µm, 100 mm × 2.1 mm) (Waters Corp., Milford, MA, USA). Samples were maintained in the autosampler at 4 °C with […] of each being injected into the column. Chromatographic separations were conducted at 35 °C with a flow rate of 0.2 mL/min. The mobile phase was 1 mM ammonium acetate with 0.1% formic acid and methanol. A gradient elution was used from 20% methanol (0–2 min) to 95% methanol (3–11 min) then decreased to 20% methanol at 12 min. The overall run time is 20 mins. MRM transitions were scoparone (m/z 207 → 151), geniposide (m/z 406 → 227), rhein (m/z 283 → 240) and carbamazepine (m/z 237 → 194) for quantitation. Data acquisition was controlled with LabSolutions v. 5.60 SP1 software (Shimadzu, Kyoto, Japan).
Sample preparations were made using the protein precipitation process. A forty-five-microliter aliquot of blank plasma sample was mixed with 5 µL of internal standard solution and 100 μL […] was added. The mixture was vortexed for 5 min and centrifuged at 16,000× g for 10 min at 4 °C. The supernatant layer was then collected and transferred through a 0.22 μm membrane filter (0.22 μm, Millex-GV, Millipore, USA) to 1.5 mL autosampler vials. Finally, 20 µL was used for injection into the UPLC-MS/MS system.
Male Sprague Dawley rats weighing 230 ± 30 g were used for the following pharmacokinetic (PK) study. The rats were housed under controlled environmental conditions with free access to food and drinking water up to 12 h prior to experiments. The experimental protocol was approved by the Institutional Animal Ethics Committee of National Yang-Ming University, Taipei, Taiwan (IACUC1070112). All rats divided into two experimental groups were intragastrically fed pharmaceutical herbal product formula Yin-Chen-Hao Tang suspended in normal saline at 1 g/kg or 3 g/kg corresponding to the clinical daily dose of 9.7 g and 29.2 g in a 60 kg adult. Blood samples were collected via a polyethylene tubing (PE-50) implanted priory in the jugular vein of each rat in a heparin-rinsed vial. An aliquot of 100–120 µL blood was collected at time intervals of 0, 5, 15, 30, 60, 90, 120, 180, 240, 300 and 360 min after oral administration of the herbal product. Each group contained a total of six rats to diminish individual variation. All blood samples were immediately centrifuged as mentioned above (16,000× g for 10 min at 4 °C) and stored at −20 °C until analysis.
The pharmacokinetic parameters were calculated using the pharmacokinetic software WinNonlin Standard Edition, version 1.1 (Scientific Consulting Inc., Apex, NC, USA). The area under the plasma concentration-time curve (AUC), terminal elimination half-life (t1/2) and oral clearance (CL) were estimated using non-compartmental analysis. The maximum plasma concentration (Cmax) and time to reach the maximum concentration (Tmax) was directly applied from the plasma concentration-time curve. Pharmacokinetic parameters of each individual data set were calculated using WinNonlin Standard Edition, version 1.1 (Pharsight Corp., Mountain View, CA, USA). Statistics and graphics were performed with SPSS version 18.0 (SPSS Inc., Chicago, IL, USA) and SigmaPlot 10.0 software (Systat Software Inc., San Jose, CA, USA). All values were expressed as the mean ± standard deviation (S.D.).

[2] = set-up: method as in PMID 21945452; conditions: oral administration of 50–200 mg of rhein, healthy Chinese subjects; cited from earlier work
[3] = male, Sprague Dawley, rat, in vivo
[4] = male, Sprague Dawley, rat, in vivo, po, 1 g/kg
[5] = male, Sprague Dawley, rat, in vivo, po, 3 g/kg
[6] = rat plasma, YCHT 3 g/kg p.o., mean ± S.D., n = 6
[7] = rat plasma, YCHT 3 g/kg vs 1 g/kg p.o.

| Structure (SMILES) | increase of AUC in the 3 g/kg group compared to the 1 g/kg group [1, 3] [fold] | ratio of AUC adjusted to the administered dose, high-dose group vs low-dose group [1, 3] [times] | AUC [1, 4] [ng·h/mL] | CL (clearance) [1, 4] [mL/min/kg] | Cmax [1, 4] [ng/mL] | MRT [1, 4] [h] | Tmax [1, 4] [h] | half-life [1, 4] [h] | AUC [1, 5] [ng·h/mL] | AUC/dose [1, 5] | CL (clearance) [1, 5] [mL/min/kg] | Cmax [1, 5] [ng/mL] | MRT [1, 5] [h] | Tmax [1, 5] [h] | half-life [1, 5] [h] | other results |
| --- | --- | --- | --- | --- | --- | --- | --- | --- | --- | --- | --- | --- | --- | --- | --- | --- |
| COc1cc2ccc(=O)oc2cc1OC [Scoparone, 6,7-dimethoxycoumarin] | 7.5 | 2.5 | 15.9 | 394.7 ± 209.4 | 18 ± 12 | 0.317 | 0.233 | 0.433 ± 0.0833 | 119 | 2.374 ± 1.126 | 131.5 ± 123.6 | 132 ± 137 | 0.85 | 0.35 | 1.15 ± 0.917 | – |
| COC(=O)C1=CO[C@@H](O[C@@H]2O[C@H](CO)[C@@H](O)[C@H](O)[C@H]2O)[C@@H]2C(CO)=CC[C@H]12 [Geniposide, geniposide] | – | – | – | – | – | – | – | – | – | – | – | – | – | – | – | AUC ([1]; male, Sprague Dawley, in vivo, po, rat plasma, YCHT 1 g/kg p.o., mean ± S.D., n = 6, read-out: AUC (converted)): 313 ng·h/mL; Cmax ([1]; male, Sprague Dawley, in vivo, po, rat plasma, YCHT 1 g/kg p.o., mean ± S.D., n = 6, read-out: Cmax): 145 ± 251 ng/mL; MRT ([1]; male, Sprague Dawley, in vivo, po, rat plasma, YCHT 1 g/kg p.o., mean ± S.D., n = 6, read-out: MRT (mean retention time) (converted)): 1.92 h; Tmax ([1]; male, Sprague Dawley, in vivo, po, rat plasma, YCHT 1 g/kg p.o., mean ± S.D., n = 6, read-out: Tmax (converted)): 1.35 h; half-life ([1]; male, Sprague Dawley, in vivo, po, rat plasma, YCHT 1 g/kg p.o., mean ± S.D., n = 6, read-out: t1/2 (elimination half-life)): 1.33 ± 0.3 h; AUC ([1]; male, Sprague Dawley, in vivo, po, rat plasma, YCHT 3 g/kg p.o., mean ± S.D., n = 6, read-out: AUC (converted)): 1580 ng·h/mL; Cmax ([1]; male, Sprague Dawley, in vivo, po, rat plasma, YCHT 3 g/kg p.o., mean ± S.D., n = 6, read-out: Cmax): 604 ± 256 ng/mL; MRT ([1]; male, Sprague Dawley, in vivo, po, rat plasma, YCHT 3 g/kg p.o., mean ± S.D., n = 6, read-out: MRT (mean retention time) (converted)): 2.53 h; Tmax ([1]; male, Sprague Dawley, in vivo, po, rat plasma, YCHT 3 g/kg p.o., mean ± S.D., n = 6, read-out: Tmax (converted)): 1.35 h; half-life ([1]; male, Sprague Dawley, in vivo, po, rat plasma, YCHT 3 g/kg p.o., mean ± S.D., n = 6, read-out: t1/2 (elimination half-life)): 1.43 ± 0.483 h; concentration at 180 min ([1]; male, Sprague Dawley, rat, in vivo, typical plasma sample collected 180 min after oral YCHT 3 g/kg): 287 ng/mL; CL (clearance) ([1]; rat plasma, YCHT 1 g/kg p.o., mean ± S.D., n = 6): 1403 ± 1018 mL/min/kg; AUC/dose [1, 6]: 31.63 ± 10.76; CL (clearance) [1, 6]: 259.8 ± 109.2 mL/min/kg; increase of AUC in the 3 g/kg group compared to the 1 g/kg group [1, 7]: 5.1 fold; ratio of AUC adjusted to the administered dose, high-dose group vs low-dose group [1, 7]: 1.7 times |
| O=C(O)c1cc(O)c2c(c1)C(=O)c1cccc(O)c1C2=O [Rhein, rhein] | 6.8 | 2.3 | 485 | 3.710 ± 1.366 | 311 ± 166 | 1.77 | 0.2 | 2.02 ± 0.767 | 3310 | 66.18 ± 17.09 | 1.483 ± 0.357 | 1660 ± 805 | 1.93 | 0.383 | 1.73 ± 1.15 | pharmacokinetics, dose linearity [2]: Linear pharmacokinetics |

— article PMC6222633, “Preclinical Pharmacokinetics of Scoparone, Geniposide and Rhein in an Herbal Medicine Using a Validated LC-MS/MS Method” (Molecules : A Journal of Synthetic Chemistry and Natural …, 2018)
